Values belong to the compound of their own block, whether it stands above or below them.
Legend:
Assay type in all cases: biochemical
Aurora A kinase = target: T1, Aurora A kinase (Homo sapiens, UniProt O14965); assay: Aurora A kinase assay ([γ-33P]ATP, CHOCKtide substrate)
T1 construct: purchased Upstate
T1 sequence (O14965 1-403): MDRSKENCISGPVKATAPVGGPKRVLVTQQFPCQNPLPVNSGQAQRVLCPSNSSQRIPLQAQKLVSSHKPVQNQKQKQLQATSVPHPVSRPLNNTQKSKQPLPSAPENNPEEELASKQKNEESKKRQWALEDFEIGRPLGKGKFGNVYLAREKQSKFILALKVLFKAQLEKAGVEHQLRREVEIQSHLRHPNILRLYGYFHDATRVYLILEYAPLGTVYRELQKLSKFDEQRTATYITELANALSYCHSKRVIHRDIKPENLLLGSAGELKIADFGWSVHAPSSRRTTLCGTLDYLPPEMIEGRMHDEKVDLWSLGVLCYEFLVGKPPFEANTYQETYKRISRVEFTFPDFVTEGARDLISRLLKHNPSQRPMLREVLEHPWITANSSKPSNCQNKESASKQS
Method in brief: (§1)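 Radiometric filter-binding format: 33P incorporation into CHOCKtide counted after acid stop and filtration. Reactions ran 30 min at 33 °C, Aurora A with 10 μM ATP, Aurora B with 40 μM ATP. IC50 taken as concentration giving half-maximal kinase inhibition.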

Aurora B kinase = target: T2, Aurora B kinase (Homo sapiens, UniProt Q96GD4); assay: Aurora B kinase assay ([γ-33P]ATP, CHOCKtide substrate)
T2 construct: purchased Cell signaling
Method in brief: as §1

Flt3 kinase = target: T3, Flt3 kinase (Homo sapiens, UniProt P36888); assay: Flt3 kinase assay (33P incorporation into Poly(Glu-Tyr)); conditions: 100 nM test compound; read-out: Inhibition at 100 nM (%) Flt-3
T3 construct: recombinant N-terminal 6×His-tagged Flt3 kinase domain construct expressed from baculovirus; 6xHis (N); made in house
T3 sequence (P36888 610-943 limits assumed): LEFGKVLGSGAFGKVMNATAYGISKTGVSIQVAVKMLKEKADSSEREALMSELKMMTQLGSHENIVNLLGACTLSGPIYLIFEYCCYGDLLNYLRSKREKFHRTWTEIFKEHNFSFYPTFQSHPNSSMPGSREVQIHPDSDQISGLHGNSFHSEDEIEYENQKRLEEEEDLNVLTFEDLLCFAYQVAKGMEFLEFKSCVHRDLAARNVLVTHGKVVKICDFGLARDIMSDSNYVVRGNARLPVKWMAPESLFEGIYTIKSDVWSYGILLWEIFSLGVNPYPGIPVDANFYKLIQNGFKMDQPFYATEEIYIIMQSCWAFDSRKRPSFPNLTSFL
Description: Inhibition of Flt3 kinase activity by compounds disclosed herein was quantified by measuring the amount of [^33P] incorporated into the substrate in the presence of a test compound. Briefly, a reaction mixture of 25 μL final volume containing 5 ng of Flt3 kinase (obtained by purifying recombinant N-terminal 6×His-tagged Flt3 kinase domain construct expressed from baculovirus), 5 μg of the substrate (Poly (Glu-Tyr, 4:1, Sigma)), kinase reaction buffer (20 mM MOPS pH 7.0, 1 mM EDTA, 5% glycerol, 0.01% Brij-35, 0.1% β-mercaptoethanol, 1 mg/mL BSA, 100 μM ATP, 0.1 μCi per well [^33P]-γ-ATP (2,500-3,000 Ci/mmol)), and a test compound (100 nM, diluted with 4% DMSO) or DMSO (as the control) was incubated at 30° C. for 30 minutes. The reaction was stopped by adding 5 μL of 3% phosphoric acid solution. The resultant reaction solution was then harvested onto a filter plate (UniFilter-96 GF/B, PerkinElmer), washed 20 times for 5 min with d.d. H2O, and followed by the addition of 30 μL of MicroScint™-20 Cocktail (PerkinElmer). The plate was then sealed and counted using a TopCount scintillation detector (PerkinElmer). The percentage of inhibition rate of the test compound was calculated by dividing the retained radioactivity of the test sample with the retained radioactivity of the control sample and shown in Table 3.

T2 sequence (Q96GD4 whole entry): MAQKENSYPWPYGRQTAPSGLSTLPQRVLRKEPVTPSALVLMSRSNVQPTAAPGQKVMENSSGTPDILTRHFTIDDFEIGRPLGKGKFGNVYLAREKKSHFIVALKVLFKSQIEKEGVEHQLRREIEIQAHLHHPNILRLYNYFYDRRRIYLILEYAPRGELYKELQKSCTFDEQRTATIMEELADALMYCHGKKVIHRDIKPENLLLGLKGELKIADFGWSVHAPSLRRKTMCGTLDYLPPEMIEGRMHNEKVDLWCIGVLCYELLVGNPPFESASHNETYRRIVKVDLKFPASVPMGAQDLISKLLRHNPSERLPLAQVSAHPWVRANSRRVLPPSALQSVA

Structure (SMILES): O=C(O)CCc1c(/C=C2\C(=O)Nc3ccccc32)[nH]c2c1C(=O)CCC2 [DCB-70052, (Z)-3-((3-carboxyethyl-4-oxo-4,5,6,7-tetrahydro-1H-indol-2-yl)methylene)indolin-2-one]
IC50 (Aurora A kinase): 209 nM | inhibition at 1 µM (Aurora A kinase; 1.0 μM test compound): 74.8% | inhibition at 1 µM (Aurora B kinase; 1.0 μM test compound): 13% | inhibition at 0.1 µM (Flt3 kinase): 72.1%

Structure (SMILES): COc1cc(-c2ccc3c(c2)/C(=C/c2[nH]c4c(c2CCC(=O)O)C(=O)CCC4)C(=O)N3)ccc1O [DCB-70059, (Z)-5-(4-hydroxyl-3-methoxyphenyl)-3-((3-carboxyethyl-4-oxo-4,5,6,7-tetrahydro-1H-indol-2-yl)methylene)indolin-2-one]
IC50 (Aurora A kinase): 357 nM | inhibition at 1 µM (Aurora A kinase; 1.0 μM test compound): 76.1% | inhibition at 1 µM (Aurora B kinase; 1.0 μM test compound): 12.4% | inhibition at 0.1 µM (Flt3 kinase): 21.5%

Structure (SMILES): CNS(=O)(=O)c1ccc2c(c1)/C(=C/c1[nH]c3c(c1CCC(=O)O)C(=O)CCC3)C(=O)N2 [DCB-70065, (Z)-5-(N-methylsulfamoyl)-3-((3-carboxyethyl-4-oxo-4,5,6,7-tetrahydro-1H-indol-2-yl)methylene)indolin-2-one]
IC50 (Aurora A kinase): 30.8 nM | inhibition at 1 µM (Aurora A kinase; 1.0 μM test compound): 97.3% | inhibition at 1 µM (Aurora B kinase; 1.0 μM test compound): 25.6% | inhibition at 0.1 µM (Flt3 kinase): -6.8%

Structure (SMILES): CCOC(=O)CCc1c(/C=C2\C(=O)Nc3ccc(-c4ccc(OC)c(OC)c4)cc32)[nH]c2c1C(=O)CCC2 [DCB-70067, (Z)-5-(3,4-dimethoxyphenyl)-3-((3-(3-ethoxy-3-oxopropyl)-4-oxo-4,5,6,7-tetrahydro-1H-indol-2-yl)methylene)indolin-2-one]
inhibition at 1 µM (Aurora A kinase; 1.0 μM test compound): 5.2% | inhibition at 1 µM (Aurora B kinase; 1.0 μM test compound): -1.3% | inhibition at 0.1 µM (Flt3 kinase): 21.2%

Structure (SMILES): COc1ccc(-c2ccc3c(c2)/C(=C/c2[nH]c4c(c2CCC(=O)O)C(=O)CCC4)C(=O)N3)cc1OC [DCB-70068, (Z)-5-(3,4-dimethoxyphenyl)-3-((3-carboxyethyl-4-oxo-4,5,6,7-tetrahydro-1H-indol-2-yl)methylene)indolin-2-one]
IC50 (Aurora A kinase): 560 nM | inhibition at 1 µM (Aurora A kinase; 1.0 μM test compound): 54% | inhibition at 1 µM (Aurora B kinase; 1.0 μM test compound): 5.1% | inhibition at 0.1 µM (Flt3 kinase): 15.6%

Structure (SMILES): CCOC(=O)CCc1c(/C=C2\C(=O)Nc3ccc(-c4cc5ccccc5s4)cc32)[nH]c2c1C(=O)CCC2 [DCB-70069, (Z)-5-(benzo[b]thiophen-2-yl)-3-((3-(3-ethoxy-3-oxopropyl)-4-oxo-4,5,6,7-tetrahydro-1H-indol-2-yl)methylene)indolin-2-one]
inhibition at 1 µM (Aurora A kinase; 1.0 μM test compound): 16.5% | inhibition at 1 µM (Aurora B kinase; 1.0 μM test compound): -2.6% | inhibition at 0.1 µM (Flt3 kinase): 9.6%

Structure (SMILES): O=C(O)CCc1c(/C=C2\C(=O)Nc3ccc(-c4cc5ccccc5s4)cc32)[nH]c2c1C(=O)CCC2 [DCB-70070, (Z)-5-(benzo[b]thiophen-2-yl)-3-((3-carboxyethyl-4-oxo-4,5,6,7-tetrahydro-1H-indol-2-yl)methylene)indolin-2-one]
inhibition at 1 µM (Aurora A kinase; 1.0 μM test compound): 31.4% | inhibition at 1 µM (Aurora B kinase; 1.0 μM test compound): -2.7% | inhibition at 0.1 µM (Flt3 kinase): 13.3%

Structure (SMILES): O=C(O)CCc1c(/C=C2\C(=O)Nc3ccc(S(=O)(=O)Cc4ccccc4)cc32)[nH]c2c1C(=O)CCC2 [DCB-70071, (Z)-5-benzylsulfonyl-3-((3-carboxyethyl-4-oxo-4,5,6,7-tetrahydro-1H-indol-2-yl)methylene)indolin-2-one]
IC50 (Aurora A kinase): 270 nM | inhibition at 1 µM (Aurora A kinase; 1.0 μM test compound): 82.1% | inhibition at 1 µM (Aurora B kinase; 1.0 μM test compound): 11.2% | inhibition at 0.1 µM (Flt3 kinase): 21.2%

Structure (SMILES): O=C(O)CCc1c(/C=C2\C(=O)Nc3ccc(S(=O)(=O)Cc4ccc(F)cc4)cc32)[nH]c2c1C(=O)CCC2 [DCB-70072, (Z)-5-(4-fluorobenzylsulfonyl)-3-((3-carboxyethyl-4-oxo-4,5,6,7-tetrahydro-1H-indol-2-yl)methylene)indolin-2-one]
IC50 (Aurora A kinase): 443 nM | inhibition at 1 µM (Aurora A kinase; 1.0 μM test compound): 71.1% | inhibition at 1 µM (Aurora B kinase; 1.0 μM test compound): 15.5% | inhibition at 0.1 µM (Flt3 kinase): -2.1%

Structure (SMILES): O=C(O)CCc1c(/C=C2\C(=O)Nc3ccc(S(=O)(=O)Cc4c(Cl)cccc4Cl)cc32)[nH]c2c1C(=O)CCC2 [DCB-70073, (Z)-5-(2,6-dichlorobenzylsulfonyl)-3-((3-carboxyethyl-4-oxo-4,5,6,7-tetrahydro-1H-indol-2-yl)methylene)indolin-2-one]
inhibition at 1 µM (Aurora A kinase; 1.0 μM test compound): 65.5% | inhibition at 1 µM (Aurora B kinase; 1.0 μM test compound): 9.4% | inhibition at 0.1 µM (Flt3 kinase): 1.4%

Further lines, results first:

IC50 (Aurora A kinase): 1780 nM | inhibition at 1 µM (Aurora A kinase; 1.0 μM test compound): 32.6% | IC50 (Aurora B kinase): 5920 nM | inhibition at 1 µM (Aurora B kinase; 1.0 μM test compound): 2.3% | inhibition at 0.1 µM (Flt3 kinase): 90.2%
Structure (SMILES): CCOC(=O)CCc1c(/C=C2\C(=O)Nc3ccccc32)[nH]c2c1C(=O)CCC2 [DCB-70049, (Z)-3-((3-(3-ethoxy-3-oxopropyl)-4-oxo-4,5,6,7-tetrahydro-1H-indol-2-yl)methylene)indolin-2-one]

IC50 (Aurora A kinase): 1980 nM | Aurora A kinase assay Inhibition at 1.0 μM (%) (Aurora A kinase; 1.0 μM test compound, 1 µM): 38.2% | Aurora B kinase assay Inhibition at 1.0 μM (%) (Aurora B kinase; 1.0 μM test compound, 1 µM): 3.5% | inhibition at 0.1 µM (Flt3 kinase): 97.3%
Structure (SMILES): CCOC(=O)CCc1c(/C=C2\C(=O)Nc3ccc(F)cc32)[nH]c2c1C(=O)CCC2 [DCB-70053, (Z)-5-fluoro-3-((3-(3-ethoxy-3-oxopropyl)-4-oxo-4,5,6,7-tetrahydro-1H-indol-2-yl)methylene)indolin-2-one]

inhibition at 1 µM (Aurora A kinase; 1.0 μM test compound): 55% | inhibition at 1 µM (Aurora B kinase; 1.0 μM test compound): 7.2% | inhibition at 0.1 µM (Flt3 kinase): 99.2%
Structure (SMILES): CCOC(=O)CCc1c(/C=C2\C(=O)Nc3ccc(Br)cc32)[nH]c2c1C(=O)CCC2 [DCB-70056, (Z)-5-bromo-3-((3-(3-ethoxy-3-oxopropyl)-4-oxo-4,5,6,7-tetrahydro-1H-indol-2-yl)methylene)indolin-2-one]

IC50 (Aurora A kinase): 211 nM | inhibition at 1 µM (Aurora A kinase; 1.0 μM test compound): 89.5% | inhibition at 1 µM (Aurora B kinase; 1.0 μM test compound): 6.8% | inhibition at 0.1 µM (Flt3 kinase): 92.8%
Structure (SMILES): O=C(O)CCc1c(/C=C2\C(=O)Nc3ccc(Br)cc32)[nH]c2c1C(=O)CCC2 [DCB-70057, (Z)-5-bromo-3-((3-carboxyethyl-4-oxo-4,5,6,7-tetrahydro-1H-indol-2-yl)methylene)indolin-2-one]

inhibition at 1 µM (Aurora A kinase; 1.0 μM test compound): 17.7% | inhibition at 1 µM (Aurora B kinase; 1.0 μM test compound): -1% | inhibition at 0.1 µM (Flt3 kinase): 55.1%
Structure (SMILES): CCOC(=O)CCc1c(/C=C2\C(=O)Nc3ccc(-c4ccc(O)c(OC)c4)cc32)[nH]c2c1C(=O)CCC2 [DCB-70058, (Z)-5-(4-hydroxyl-3-methoxyphenyl)-3-((3-(3-ethoxy-3-oxopropyl)-4-oxo-4,5,6,7-tetrahydro-1H-indol-2-yl)methylene)indolin-2-one]

inhibition at 1 µM (Aurora A kinase; 1.0 μM test compound): -7.2% | inhibition at 1 µM (Aurora B kinase; 1.0 μM test compound): -4.1% | inhibition at 0.1 µM (Flt3 kinase): 91.6%
Structure (SMILES): CCOC(=O)CCc1c(/C=C2\C(=O)Nc3ccc([N+](=O)[O-])cc32)[nH]c2c1C(=O)CCC2 [DCB-70062, (Z)-5-nitro-3-((3-(3-ethoxy-3-oxopropyl)-4-oxo-4,5,6,7-tetrahydro-1H-indol-2-yl)methylene)indolin-2-one]

IC50 (Aurora A kinase): 724 nM | inhibition at 1 µM (Aurora A kinase; 1.0 μM test compound): 56.6% | inhibition at 1 µM (Aurora B kinase; 1.0 μM test compound): 3.4% | inhibition at 0.1 µM (Flt3 kinase): 74.7%
Structure (SMILES): O=C(O)CCc1c(/C=C2\C(=O)Nc3ccc([N+](=O)[O-])cc32)[nH]c2c1C(=O)CCC2 [DCB-70063, (Z)-5-nitro-3-((3-carboxyethyl-4-oxo-4,5,6,7-tetrahydro-1H-indol-2-yl)methylene)indolin-2-one]

IC50 (Aurora A kinase): 313 nM | inhibition at 1 µM (Aurora A kinase; 1.0 μM test compound): 78.6% | inhibition at 1 µM (Aurora B kinase; 1.0 μM test compound): 22.2% | inhibition at 0.1 µM (Flt3 kinase): 25.7%
Structure (SMILES): CCOC(=O)CCc1c(/C=C2\C(=O)Nc3ccc(S(=O)(=O)NC)cc32)[nH]c2c1C(=O)CCC2 [DCB-70064, (Z)-5-(N-methylsulfamoyl)-3-((3-(3-ethoxy-3-oxopropyl)-4-oxo-4,5,6,7-tetrahydro-1H-indol-2-yl)methylene)indolin-2-one]

inhibition at 1 µM (Aurora A kinase; 1.0 μM test compound): 40.1% | inhibition at 1 µM (Aurora B kinase; 1.0 μM test compound): 25.3% | inhibition at 0.1 µM (Flt3 kinase): 38.6%
Structure (SMILES): CCOC(=O)CCc1c(/C=C2\C(=O)Nc3cc(-c4ccc(O)cc4)ccc32)[nH]c2c1C(=O)CCC2 [DCB-70066, (Z)-6-(4-hydroxyphenyl)-3-((3-(3-ethoxy-3-oxopropyl)-4-oxo-4,5,6,7-tetrahydro-1H-indol-2-yl)methylene)indolin-2-one]
